In general, IC50 refers to the concentration that inhibits the measured activity by half. Broadly, the EC50 is the concentration needed to bring the measured effect to its halfway point.

Consider 9 compounds from patent publication US20240156790A1, “COMPOUNDS, COMPOSITIONS, AND METHODS FOR MODULATING FERROPTOSIS AND TREATING EXCITOTOXIC DISORDERS” (THE TRUSTEES OF COLUMBIA UNIVERSITY IN THE CITY OF NEW YORK, priority 2018, published 2024).

Series [1] has as its system HT-1080 cells. Description: Rescue activity of selected Fer-1 analogs, dose-response in HT-1080 cells (cell titer glo). The format is cell-based. The note with it: for potency compared, in words: 0.2 μM RSL3, 10 μM erastin; for IC50: Homo sapiens, HT-1080, range 10 μM-0 μM. How it is done: Selected Fer-1 analogs containing a pyridine moiety (FIG. 4) were tested to examine their efficacy and overall potency in inhibiting ferroptosis. For each of these compounds, dose-response curves were generated in HT-1080 cells looking at the effectiveness of the molecules in inhibiting ferroptosis induced by either 3 μM IKE or 0.2 μM RSL3, Fer-1 was used as a positive control. For each dose-response curve, 1,000 cells/well were seeded in a 384 well plate and allowed to adhere overnight prior to treating with compound from a daughter plate. Cells were treated for 48 hours, unless otherwise noted, prior to viability being analyzed using cell titer glo (40 μL per well). All liquid handling was performed using the BioMek. All samples were prepared in triplicate, unless otherwise noted.
(In general: ATP-based viability assays read luminescence as a measure of living cells.)

Series [2] can be described thus: Microsomal stability, mouse liver microsomes (Table 1). It counts as in vitro ADME, Mouse: CD1. The note with it: liver microsomes. How it is done: Each compound (1 μM) is incubated with mouse plasma, for 4 hours at 37° C., with shaking at 100 rpm. The concentration of compound in the buffer and plasma chambers is determined using LC-MS/MS. Metabolism of each compound is predicted using Sites of Metabolism (Schrodinger Suite), which combines intrinsic reactivity analysis (Hammett-Taft) with induced fit docking against 2C9, 2D6 and 3A4. This approach identifies 90% of known metabolism sites and has a false positive rate of 17%. The in vitro metabolic stability of each compound in mouse liver microsomes is determined. Pooled mouse liver microsomes are prepared and stored at −80° C. until needed. […]
Background: Liver microsomes are a subcellular fraction often used to study metabolism.

For series [3], the system named is HT-1080 cells. Description: Rescue activity of Fer-1 analogs: inhibition of erastin-, IKE- or RSL3-induced death (Alamar Blue viability). The note with it: Homo sapiens. It counts as cell-based. As for the experimental part: HT-1080 cells are cultured in DMEM containing 10% fetal bovine serum, 1% supplemented non-essential amino acids and 1% pen/strep mixture (Gibco) and maintained in a humidified environment at 37° C. with 5% CO2 in a tissue culture incubator. 1,000 HT-1080 cells are seeded per well in duplicate 384-well plates (Corning) using a BioMek FX liquid handling robot (Beckman Coulter). The next day, the medium is replaced with 36 μL of medium containing 10 μM erastin with 4 μL of medium containing a dilution series (previously prepared) of DMSO, Fer-1 (positive control) or Fer-1 analogs. […] Cells are incubated a further 6 hours and then the Alamar Blue fluorescence intensity recorded using a Victor 3 platereader (PerkinElmer)(ex/em 530/590). All experiments are performed at least twice and the background (no cells)-subtracted Alamar Blue values for each combination are averaged between replicates. The same procedure was repeated by replacing erastin (10 μM) with IKE (3 μM) or RSL3 (0.2 μM).

A short description of series [4]: Microsomal stability, dog (Table 1). It counts as in vitro ADME. The note with it: liver microsomes; Dog: Beagle; read-out: Microsomal Stability t1/2. How it is done:
Each compound (1 μM) is incubated with mouse plasma, for 4 hours at 37° C., with shaking at 100 rpm. The concentration of compound in the buffer and plasma chambers is determined using LC-MS/MS. Metabolism of each compound is predicted using Sites of Metabolism (Schrodinger Suite), which combines intrinsic reactivity analysis (Hammett-Taft) with induced fit docking against 2C9, 2D6 and 3A4. This approach identifies 90% of known metabolism sites and has a false positive rate of 17%. The in vitro metabolic stability of each compound in mouse liver microsomes is determined. Pooled mouse liver microsomes are prepared and stored at −80° C. until needed. Compound stability in liver microsomes is measured at 0, 15, 30, 45 and 60 minutes in duplicate, using LC-MS/MS analysis.

Series [5] is described as follows: Microsomal stability, rat (Table 1). It counts as in vitro ADME. The conditions noted are these: Rat: Sprague Dawley; for half-life: liver microsomes, read-out: Microsomal Stability t1/2 (converted).
Series [6] is described as follows: Microsomal stability, human liver microsomes (Table 1). The format is in vitro ADME. The conditions noted are these: Human: Pooled, 50 donors; for half-life: liver microsomes, read-out: Microsomal Stability t1/2 (converted).
In series [7] the test system is HT-1080 fibrosarcoma cells. The note with it: cited from earlier work.
Series [8] deals with HT-1080 cells. The experiment in a line: Cell viability assays in HT-1080 cells, ferroptosis induced by IKE or RSL3 (Example 8). It counts as cell-based. The conditions noted are these: for IC50: Homo sapiens, HT-1080, 48 h. How it is done: Cell culture assays were incubated at 37° C. with 5% CO2. HT-1080 cells were grown in DMEM (Corning) supplemented with 10% FBS (Life Technologies), 1% Penicillin-Streptomycin 10,000 U/mL (Gibco), and 1% MEM Non-Essential Amino Acids Solution 100× (Gibco). For cell viability assays, cells were trypsinized, counted, and seeded into 384-well white polypropylene plates at 1,000 cells/well, unless otherwise specified. After allowing cells to adhere overnight, compounds in DMSO stocks were arrayed in a 16-point dilution series prepared in a mother plate, and treated from a daughter plate, [DMSO]=0.28%. After 24 or 48 h, 50% CellTiter-Glo (Promega) 50% cell culture medium was added to each well and incubated at room temperature with shaking for 15 min. Luminescence was measured using a Victor X5 plate reader (PerkinElmer). All cell viability data were normalized to the DMSO vehicle condition. […] All 384w measurements were performed in triplicate
We first evaluated the efficacy of four pyridine analogs, TH-2-9-1, TH-2-31, TH-2-37-1, and TH-2-37-2, in suppressing ferroptosis induced by IKE and RSL3 in HT-1080 cells. […] We sought to determine whether incorporation of pyridine changed stability in mouse liver microsomes.

Setting [9] is: CD1, mouse, Mouse: CD1, read-out: Microsomal Stability t1/2.
Where [10] appears, read: HT-1080, ^b 50% viability, HT-1080 treated with 3 μM IKE.
Setting [11] is: HT-1080, ^c 50% viability, HT-1080 treated with 0.2 μM RSL3.
Where [12] appears, read: HT-1080, ^a 50% viability, HT-1080 cells treated with 10 μM erastin.

Entries after “also recorded” stand apart in the source; their conditions may differ. Where only a bound is given, the exact number is not on record here.

Turning to `Cc1noc(-c2cnc(NC3CCCCC3)c(NC3CCCCC3)c2)n1` [CFI-102], the “potency compared, in words” value in series [1] (3 μM IKE) is on record as “the most potent analog for both IKE an RSL3”. Further, the concentration for half-maximal inhibition (IC50) in series [1] (0.2 μM RSL3, 48 hours, read-out: IC50 against RSL3) lay in the range of 10 to 20 nM; in series [1] (3 μM IKE, 48 hours, read-out: IC50 against IKE), 10 to 20 nM. For the same compound, the “toxicity (overall drop in viability)” value in series [1] (at 10 μM compound) is “appeared to be toxic”. Further, in series [1] (starting concentration 5 μM, treated 51 hours, IKE and RSL3), the “concentration achieving full rescue” value is listed as “around 0.0001 μM”. Also, the half-life in series [2] (setting [9]) was in the range of 0.5 to 1 h. Moreover, the EC50 in series [3] (setting [10]) and in series [3] (setting [11]) was 0.9 nM each time.
Turning to `Nc1cc(-c2ncco2)ccc1NC1CCCCC1` [CFI-4051], the half-life in series [2] (setting [9]) was 0.0533 to 0.055 h; in series [4] it was over 2 h; in series [5], 0.5 to 1 h; in series [6] it was over 2 h. For the same compound, the EC50 in series [3] (setting [12]) was found to be 36 nM; in series [3] (setting [10]), 13 nM; in series [3] (setting [11]) it was 5 nM.
Turning to `CC(C)(C)OC(=O)c1ccc(NC23CC4CC(CC(C4)C2)C3)c(N=Cc2cncnc2)c1` [SRS16-86], in series [7], the “decrease in potency relative to SRS11-92” value was over 50 fold and the “decrease in potency relative to fer-1” value was about 4 fold.
Turning to `Cc1noc(-c2ccc(NC34CC5CC(CC(C5)C3)C4)c(NC3CCCCC3)c2)n1` [CFI-4083], the half-life in series [2] (CD1 (mouse), mouse, human, in either mouse or human liver microsomes, read-out: T1/2) is over 2 h; in series [2] (setting [9]), over 2 h; in series [6], over 2 h.
Take `COc1cnc(NC2CCCCC2)c(NC2CCCCC2)c1` [TH-2-9-1, N^2,N^3-dicyclohexyl-5-methoxypyridine-2,3-diamine]: the “death observed with RSL3” value in series [1] (0.2 μM RSL3, inhibitor range 10 μM-0 μM) is “No death was observed”. In addition, the “potency compared, in words” value in series [1] (3 μM IKE) is “an order of magnitude more potent than Fer-1 for all inducers beyond RSL3; also recorded: the most potent analog for RSL3 alone”. In series [1] (inhibitor 1 μM-0 μM, 3 μM IKE, 10 μM erastin, 48 hours), the “rescue against IKE and erastin” value is listed as about 50%. Further, in series [2] (setting [9]), the half-life stood at 0.128 h. Further, the EC50 in series [3] (setting [12]) stood at 0.1 nM; in series [3] (setting [10]), 0.21 nM; in series [3] (setting [11]), 0.2 nM. Further, the “potency relative to fer-1 at suppressing ferroptosis, in words” value in series [8] is recorded as “slightly less potent than fer-1 in inhibiting IKE-induced death”. The IC50 in series [8] (^b 2 μM IKE, 48 hours, 1,000 cells/well) is 16.9 nM; in series [8] (^c 0.2 μM RSL3, 48 hours, 1,000 cells/well), 2.7 nM.
On to `CC(C)(C)OC(=O)c1cc(N)c(NC23CC4CC(CC(C4)C2)C3)cc1Cl` [CFI-A3], for which the half-life in series [2] (setting [9]) is 0.27 to 0.277 h; in series [4] it was over 2 h; in series [5], 0.5 to 1 h; in series [6], over 2 h. For the same compound, the results for the EC50 in series [3] (setting [10]) and in series [3] (setting [11]) were 26 nM and 6 nM, respectively.
For the compound `CCCC(CC)Nc1ccc(C(=O)OC(C)(C)C)cc1Nc1ccccc1` (stereo not drawn) [CFI-4081], in series [6], the “Microsomal Stability t1/2” value was over 2 h.
Regarding `CCOC(=O)c1ccc(NC2CCCCC2)c(NCc2ccccc2)c1` [SRS11-92], the “potency, in words” value in series [7] was “low nanomolar potency”.
With `C=C(/C=C\CNC12CC3CC(CC(C3)C1)C2)COC(C)(C)C` [CFI-A4], the EC50 in series [3] (setting [10]) came to 16 nM; in series [3] (setting [11]), 1 nM. Further, the “Microsomal Stability t1/2” value was about 0.333 h in series [5] and over 2 h in series [6].
